In PubChem BioAssay AID248 (DTP/NCI, 2004):
Several values for one entry are separate records, joined by “and”; a condition that tells them apart may be missing. Equal values may be shown once. Inconclusive results and toxic doses are left out. Cut-off read from the data, not from the text of the source: active = T/C of 150% or more; inactive = T/C below 125%.

Tested on: L1210 leukemia ip in BDF1 mice, survival T/C
Test: NCI In Vivo Anticancer Drug Screen. Data for tumor model L1210 Leukemia (intraperitoneal) in B6D2F1 (BDF1) mice
Settings: endpoint: mean survival time, higher = longer survival
Procedure, shortened: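 Each compound was tested against a transplantable tumor grown in mice. The endpoint was survival, with treated animals benchmarked against vehicle controls as a simple ratio.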

[1] = dose: 200.0 mg/kg/injection, schedule: Q01DX001 (ip), vehicle: saline
[2] = dose: 100.0 mg/kg/injection, schedule: Q04DX002 (ip), vehicle: Klucel (hydroxypropylcellulose) (HPC)
[3] = dose: 200.0 mg/kg/injection, schedule: Q04DX002 (ip), vehicle: Klucel (hydroxypropylcellulose) (HPC)
[4] = dose: 100.0 mg/kg/injection, schedule: Q01DX001 (ip), vehicle: saline
[5] = dose: 400.0 mg/kg/injection, schedule: Q01DX001 (ip), vehicle: saline
[6] = dose: 100.0 mg/kg/injection, schedule: Q01DX001 (ip), vehicle: carboxymethylcellulose (CMC)
[7] = dose: 200.0 mg/kg/injection, schedule: Q01DX001 (ip), vehicle: carboxymethylcellulose (CMC)
[8] = dose: 400.0 mg/kg/injection, schedule: Q01DX001 (ip), vehicle: carboxymethylcellulose (CMC)
[9] = dose: 50.0 mg/kg/injection, schedule: Q01DX001 (ip), vehicle: saline
[10] = dose: 12.5 mg/kg/injection, schedule: Q01DX009 (ip), vehicle: saline
[11] = dose: 25.0 mg/kg/injection, schedule: Q01DX009 (ip), vehicle: saline
[12] = dose: 25.0 mg/kg/injection, schedule: Q04DX003 (ip), vehicle: saline
[13] = dose: 50.0 mg/kg/injection, schedule: Q04DX003 (ip), vehicle: saline
[14] = dose: 100.0 mg/kg/injection, schedule: Q01DX009 (ip), vehicle: saline with Tween-80
[15] = dose: 200.0 mg/kg/injection, schedule: Q01DX009 (ip), vehicle: saline with Tween-80
[16] = dose: 100.0 mg/kg/injection, schedule: Q01DX009 (ip), vehicle: Klucel (hydroxypropylcellulose) (HPC)
[17] = dose: 100.0 mg/kg/injection, schedule: Q04DX003 (ip), vehicle: Klucel (hydroxypropylcellulose) (HPC)
[18] = dose: 200.0 mg/kg/injection, schedule: Q01DX009 (ip), vehicle: Klucel (hydroxypropylcellulose) (HPC)
[19] = dose: 200.0 mg/kg/injection, schedule: Q04DX003 (ip), vehicle: Klucel (hydroxypropylcellulose) (HPC)
[20] = dose: 400.0 mg/kg/injection, schedule: Q04DX003 (ip), vehicle: Klucel (hydroxypropylcellulose) (HPC)
[21] = dose: 50.0 mg/kg/injection, schedule: Q01DX009 (ip), vehicle: saline

Measured: T/C

O=C(CCN1CCCCC1)c1ccc([N+](=O)[O-])cc1
inactive: [1] 103 % of control

COc1cc(NC(=O)Nc2cc([N+](=O)[O-])ccc2C)c(OC)cc1Cl
inactive: [2] 106 % of control | [3] 97 % of control | dose: 400.0 mg/kg/injection, schedule: Q04DX002 (ip), vehicle: Klucel (hydroxypropylcellulose) (HPC) 95 % of control

Cn1c2ccccc2c(=O)c2ccccc21
inactive: [4] 117 % of control | [1] 101 % of control | [5] 101 % of control

N=C(N)c1ccc(OCCCCOc2ccc(NC(=O)c3cccc(S(=O)(=O)F)c3)cc2)cc1
inactive: dose: 50.0 mg/kg/injection, schedule: Q01DX001 (ip), vehicle: saline with Tween-80 98 % of control | dose: 100.0 mg/kg/injection, schedule: Q01DX001 (ip), vehicle: saline with Tween-80 95 % of control | dose: 200.0 mg/kg/injection, schedule: Q01DX001 (ip), vehicle: saline with Tween-80 97 % of control

CC1CN(CC2CCCCCCCCCCC2=O)CC(C)O1 (stereo not given)
inactive: [2] 116 % of control | [3] 90 % of control

O=[N+]([O-])c1cc(/C=N/N2CCN(/N=C/c3ccc(Cl)c([N+](=O)[O-])c3)CC2)ccc1Cl
inactive: [4] 96 % of control | [1] 93 % of control | [5] 90 % of control

CC1([N+](=O)[O-])COP(=O)(NC2CC2)OC1 (stereo not given)
inactive: dose: 50.0 mg/kg/injection, schedule: Q01DX001 (ip), vehicle: carboxymethylcellulose (CMC) 97 % of control | [6] 97 % of control | [7] 103 % of control | [8] 97 % of control

Cc1cc(Cl)cc(CN(C)C)c1O.[Cu+2]
inactive: [9] 97 % of control | [4] 97 % of control | [1] 113 % of control

CON1C(=O)c2ccccc2S1=O (stereo not given)
inactive: [2] 96 % of control | [3] 92 % of control

CCOC(=O)c1ccc(NC(=O)c2ccc(F)cc2)cc1
inactive: [6] 97 % of control and 105 % of control | dose: 100.0 mg/kg/injection, schedule: Q01DX009 (ip), vehicle: carboxymethylcellulose (CMC) 103 % of control and 105 % of control | dose: 100.0 mg/kg/injection, schedule: Q04DX002 (ip), vehicle: carboxymethylcellulose (CMC) 96 % of control and 97 % of control | dose: 100.0 mg/kg/injection, schedule: Q04DX003 (ip), vehicle: carboxymethylcellulose (CMC) 94 % of control and 98 % of control | [7] 101 % of control and 91 % of control | dose: 200.0 mg/kg/injection, schedule: Q01DX009 (ip), vehicle: carboxymethylcellulose (CMC) 94 % of control and 91 % of control | dose: 200.0 mg/kg/injection, schedule: Q04DX002 (ip), vehicle: carboxymethylcellulose (CMC) 97 % of control and 100 % of control | dose: 200.0 mg/kg/injection, schedule: Q04DX003 (ip), vehicle: carboxymethylcellulose (CMC) 95 % of control and 91 % of control | [8] 96 % of control and 90 % of control | dose: 400.0 mg/kg/injection, schedule: Q01DX009 (ip), vehicle: carboxymethylcellulose (CMC) 93 % of control and 106 % of control | dose: 400.0 mg/kg/injection, schedule: Q04DX002 (ip), vehicle: carboxymethylcellulose (CMC) 92 % of control and 90 % of control | dose: 400.0 mg/kg/injection, schedule: Q04DX003 (ip), vehicle: carboxymethylcellulose (CMC) 100 % of control and 91 % of control

CC(C)(C)N(N)Cc1ccccc1
inactive: [4] 106 % of control | [1] 95 % of control | [5] 104 % of control

CC(C)=NN=C(C)C
inactive: dose: 12.5 mg/kg/injection, schedule: Q01DX001 (ip), vehicle: saline 101 % of control | [10] 101 % of control | dose: 25.0 mg/kg/injection, schedule: Q01DX001 (ip), vehicle: saline 99 % of control | [11] 100 % of control | [12] 100 % of control | [9] 111 % of control | [13] 102 % of control | [4] 110 % of control

COC(=O)c1ccc[n+](CC(=O)c2ccccc2)c1
inactive: dose: 100.0 mg/kg/injection, schedule: Q04DX003 (ip), vehicle: saline with Tween-80 95 % of control | dose: 200.0 mg/kg/injection, schedule: Q04DX003 (ip), vehicle: saline with Tween-80 88 % of control

Cc1nc2nc(C(F)(F)F)[nH]c2nc1C
inactive: dose: 50.0 mg/kg/injection, schedule: Q01DX009 (ip), vehicle: saline with Tween-80 98 % of control | [14] 96 % of control and 120 % of control | [15] 101 % of control and 102 % of control

COc1ccc(Br)c(CCC(C)C)c1O
inactive: [16] 110 % of control | [17] 108 % of control | [18] 95 % of control | [19] 103 % of control | dose: 400.0 mg/kg/injection, schedule: Q01DX009 (ip), vehicle: Klucel (hydroxypropylcellulose) (HPC) 89 % of control | [20] 101 % of control

Cc1c(N=Cc2ccccc2)c(=O)n(-c2ccccc2)n1C
inactive: dose: 100.0 mg/kg/injection, schedule: Q01DX009 (ip), vehicle: gum acacia 104 % of control | dose: 100.0 mg/kg/injection, schedule: Q04DX003 (ip), vehicle: gum acacia 100 % of control | dose: 200.0 mg/kg/injection, schedule: Q04DX003 (ip), vehicle: gum acacia 95 % of control | dose: 400.0 mg/kg/injection, schedule: Q01DX009 (ip), vehicle: gum acacia 88 % of control | dose: 400.0 mg/kg/injection, schedule: Q04DX003 (ip), vehicle: gum acacia 95 % of control

CC(C)(C)C1Sc2nc3ccccc3n2C1=O (stereo not given)
inactive: dose: 12.5 mg/kg/injection, schedule: Q01DX009 (ip), vehicle: Klucel (hydroxypropylcellulose) (HPC) 101 % of control | dose: 12.5 mg/kg/injection, schedule: Q04DX003 (ip), vehicle: Klucel (hydroxypropylcellulose) (HPC) 98 % of control | dose: 25.0 mg/kg/injection, schedule: Q01DX009 (ip), vehicle: Klucel (hydroxypropylcellulose) (HPC) 97 % of control | dose: 25.0 mg/kg/injection, schedule: Q04DX003 (ip), vehicle: Klucel (hydroxypropylcellulose) (HPC) 92 % of control | dose: 50.0 mg/kg/injection, schedule: Q01DX009 (ip), vehicle: Klucel (hydroxypropylcellulose) (HPC) 96 % of control | dose: 50.0 mg/kg/injection, schedule: Q04DX003 (ip), vehicle: Klucel (hydroxypropylcellulose) (HPC) 92 % of control

[Co].[NH-]CC[N-]CCO.[NH-]CC[N-]CCO
inactive: [11] 100 % of control | [21] 102 % of control | [13] 108 % of control | dose: 100.0 mg/kg/injection, schedule: Q04DX003 (ip), vehicle: saline 105 % of control

CCOC(=O)C(CCCCC(NC(C)=O)(C(=O)OCC)C(=O)OCC)(NC(C)=O)C(=O)OCC
inactive: [14] 92 % of control | [15] 94 % of control | dose: 400.0 mg/kg/injection, schedule: Q01DX009 (ip), vehicle: saline with Tween-80 92 % of control

CC(N)CCc1ccccc1 (stereo not given)
inactive: dose: 10.0 mg/kg/injection, schedule: Q01DX001 (ip), vehicle: saline 105 % of control | [10] 97 % of control | dose: 12.5 mg/kg/injection, schedule: Q04DX003 (ip), vehicle: saline 102 % of control | dose: 20.0 mg/kg/injection, schedule: Q01DX001 (ip), vehicle: saline 101 % of control | [11] 95 % of control | [12] 112 % of control | dose: 40.0 mg/kg/injection, schedule: Q01DX001 (ip), vehicle: saline 95 % of control | [21] 97 % of control | dose: 50.0 mg/kg/injection, schedule: Q04DX003 (ip), vehicle: saline with Tween-80 90 % of control | [13] 104 % of control | dose: 80.0 mg/kg/injection, schedule: Q01DX001 (ip), vehicle: saline 101 % of control | [4] 100 % of control

CCCCCCCCCCCCO
inactive: [16] 88 % of control | [18] 96 % of control

CN1CCN(C(=S)Nc2ccccc2)CC1
inactive: dose: 25.0 mg/kg/injection, schedule: Q01DX001 (ip), vehicle: Klucel (hydroxypropylcellulose) (HPC) 98 % of control | dose: 50.0 mg/kg/injection, schedule: Q01DX001 (ip), vehicle: Klucel (hydroxypropylcellulose) (HPC) 106 % of control | dose: 100.0 mg/kg/injection, schedule: Q01DX001 (ip), vehicle: Klucel (hydroxypropylcellulose) (HPC) 97 % of control and 107 % of control

CC(=O)C(C(C)=O)C(C)(C)C
inactive: [9] 95 % of control | [4] 97 % of control | [1] 90 % of control | [5] 95 % of control

COc1ccc(OCCOC(=O)Nc2ccccc2C(F)(F)F)cc1
inactive: [17] 105 % of control | [19] 90 % of control | [20] 90 % of control
